In this assay the target is T1, Angiotensin II receptor (Rattus norvegicus, UniProt P29089+P25095+P35351).
T1 sequence (P29089 whole entry): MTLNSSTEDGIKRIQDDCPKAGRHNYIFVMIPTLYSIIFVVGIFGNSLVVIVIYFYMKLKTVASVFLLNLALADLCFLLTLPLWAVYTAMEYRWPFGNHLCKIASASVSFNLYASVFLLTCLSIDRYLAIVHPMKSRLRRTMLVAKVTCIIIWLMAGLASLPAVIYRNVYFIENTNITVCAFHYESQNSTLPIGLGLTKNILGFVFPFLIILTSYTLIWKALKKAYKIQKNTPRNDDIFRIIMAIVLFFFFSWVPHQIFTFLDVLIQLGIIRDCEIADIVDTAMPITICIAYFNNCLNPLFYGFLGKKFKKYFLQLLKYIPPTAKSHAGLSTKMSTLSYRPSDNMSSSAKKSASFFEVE
T1 sequence (P25095 whole entry): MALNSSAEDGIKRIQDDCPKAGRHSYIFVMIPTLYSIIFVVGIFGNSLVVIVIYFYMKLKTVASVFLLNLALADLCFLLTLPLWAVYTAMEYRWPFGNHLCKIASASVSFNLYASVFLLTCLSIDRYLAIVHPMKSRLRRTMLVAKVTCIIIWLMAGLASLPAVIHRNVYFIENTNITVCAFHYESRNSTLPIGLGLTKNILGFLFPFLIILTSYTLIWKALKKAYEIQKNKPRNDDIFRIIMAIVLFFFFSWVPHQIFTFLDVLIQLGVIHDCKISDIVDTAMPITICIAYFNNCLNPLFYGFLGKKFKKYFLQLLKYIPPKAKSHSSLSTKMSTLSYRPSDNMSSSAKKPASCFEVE
T1 sequence (P35351 whole entry): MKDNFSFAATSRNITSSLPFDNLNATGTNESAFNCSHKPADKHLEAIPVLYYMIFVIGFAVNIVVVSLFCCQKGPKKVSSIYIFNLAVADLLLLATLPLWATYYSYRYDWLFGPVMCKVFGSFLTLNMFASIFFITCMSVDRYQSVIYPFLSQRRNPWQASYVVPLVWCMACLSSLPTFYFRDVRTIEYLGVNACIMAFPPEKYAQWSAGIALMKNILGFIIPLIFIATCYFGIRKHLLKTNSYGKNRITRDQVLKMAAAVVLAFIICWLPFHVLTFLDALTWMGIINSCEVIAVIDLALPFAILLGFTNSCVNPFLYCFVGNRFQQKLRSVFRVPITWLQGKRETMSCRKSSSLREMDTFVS
Description: Displacement of [3H]-AII from the Angiotensin II receptor isolated from the liver of rats. A general note: In a radioligand displacement assay an active substance lowers the binding of a labelled ligand.
Consider `CCc1cc(Sc2ccc(-c3ccccc3-c3nn[nH]n3)cc2)c2ncccc2n1`, for which the IC50 (as a rule, the concentration that gives 50% inhibition) stood at 0.02 µM.

`Cc1cc(SCc2ccc(-c3ccccc3-c3nn[nH]n3)cc2)c2ccccc2n1`: the 50% inhibitory concentration (IC50) came to 0.37 µM.

`Cc1nc(Sc2ccc(-c3ccccc3-c3nn[nH]n3)cc2)c2cc[nH]c2n1` showed an IC50 of over 10 µM.

The compound `Cc1cc(OCc2ccc(-c3ccccc3-c3nn[nH]n3)cc2)c2ccccc2n1` registered an IC50 of 0.031 µM.

The compound `Cc1nc(Sc2ccc(-c3ccccc3-c3nn[nH]n3)cc2)c2ccccc2n1` came in with an IC50 of 0.35 µM.

In the case of `Cc1cc(S(=O)(=O)c2ccc(-c3ccccc3-c3nn[nH]n3)cc2)c2ccccc2[n+]1[O-]`, the IC50 is over 10 µM.

Consider `Cc1cc(Sc2ccc(-c3ccccc3-c3nnn(C(c4ccccc4)(c4ccccc4)c4ccccc4)n3)cc2)c2ccccc2n1`, for which the IC50 is 4.7 µM.

Compound `Cc1cc(CCc2ccc(-c3ccccc3-c3nn[nH]n3)cc2)c2ccccc2n1` displayed an IC50 of 0.27 µM.

Source of the values: ChEMBL document CHEMBL1128193, “4-(Heteroarylthio)-2-biphenylyltetrazoles as nonpeptide angiotensin II antagonists” (J Med Chem, 1995).
